{"source": "patent US11912682B2", "about": "“Isoindolinone compounds” (Monte Rosa Therapeutics, Inc., priority 2021, dated 2024)", "key": {"GSPT1": {"biological_target": "GSPT1 (Homo sapiens (Human), UniProt P15170+Q96SW2)", "sequence (P15170 whole entry)": "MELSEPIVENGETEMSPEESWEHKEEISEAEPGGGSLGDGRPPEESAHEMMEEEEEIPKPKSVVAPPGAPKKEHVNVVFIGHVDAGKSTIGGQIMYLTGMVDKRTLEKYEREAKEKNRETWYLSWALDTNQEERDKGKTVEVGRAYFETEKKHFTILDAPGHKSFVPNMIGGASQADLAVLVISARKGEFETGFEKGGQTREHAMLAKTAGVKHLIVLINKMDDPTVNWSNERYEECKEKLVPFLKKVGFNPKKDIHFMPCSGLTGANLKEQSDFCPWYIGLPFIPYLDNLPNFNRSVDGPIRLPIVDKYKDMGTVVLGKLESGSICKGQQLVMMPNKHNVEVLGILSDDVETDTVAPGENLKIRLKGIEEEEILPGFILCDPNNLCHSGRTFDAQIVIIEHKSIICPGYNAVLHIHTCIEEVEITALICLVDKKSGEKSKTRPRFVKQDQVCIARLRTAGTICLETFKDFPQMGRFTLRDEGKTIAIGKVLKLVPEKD", "sequence (Q96SW2 whole entry)": "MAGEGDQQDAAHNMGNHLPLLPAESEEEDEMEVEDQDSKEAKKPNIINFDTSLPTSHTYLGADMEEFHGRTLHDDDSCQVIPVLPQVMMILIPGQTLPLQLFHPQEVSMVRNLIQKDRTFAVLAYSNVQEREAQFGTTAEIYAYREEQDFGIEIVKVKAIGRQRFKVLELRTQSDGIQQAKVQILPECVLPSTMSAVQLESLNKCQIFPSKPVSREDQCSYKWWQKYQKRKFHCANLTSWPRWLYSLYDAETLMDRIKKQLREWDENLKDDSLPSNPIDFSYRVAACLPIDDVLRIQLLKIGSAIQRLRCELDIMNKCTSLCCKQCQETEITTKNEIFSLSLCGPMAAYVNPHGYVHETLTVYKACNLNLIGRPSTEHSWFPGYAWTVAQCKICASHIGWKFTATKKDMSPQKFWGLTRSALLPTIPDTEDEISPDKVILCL", "sequence (Q16531 2-1140 partner)": "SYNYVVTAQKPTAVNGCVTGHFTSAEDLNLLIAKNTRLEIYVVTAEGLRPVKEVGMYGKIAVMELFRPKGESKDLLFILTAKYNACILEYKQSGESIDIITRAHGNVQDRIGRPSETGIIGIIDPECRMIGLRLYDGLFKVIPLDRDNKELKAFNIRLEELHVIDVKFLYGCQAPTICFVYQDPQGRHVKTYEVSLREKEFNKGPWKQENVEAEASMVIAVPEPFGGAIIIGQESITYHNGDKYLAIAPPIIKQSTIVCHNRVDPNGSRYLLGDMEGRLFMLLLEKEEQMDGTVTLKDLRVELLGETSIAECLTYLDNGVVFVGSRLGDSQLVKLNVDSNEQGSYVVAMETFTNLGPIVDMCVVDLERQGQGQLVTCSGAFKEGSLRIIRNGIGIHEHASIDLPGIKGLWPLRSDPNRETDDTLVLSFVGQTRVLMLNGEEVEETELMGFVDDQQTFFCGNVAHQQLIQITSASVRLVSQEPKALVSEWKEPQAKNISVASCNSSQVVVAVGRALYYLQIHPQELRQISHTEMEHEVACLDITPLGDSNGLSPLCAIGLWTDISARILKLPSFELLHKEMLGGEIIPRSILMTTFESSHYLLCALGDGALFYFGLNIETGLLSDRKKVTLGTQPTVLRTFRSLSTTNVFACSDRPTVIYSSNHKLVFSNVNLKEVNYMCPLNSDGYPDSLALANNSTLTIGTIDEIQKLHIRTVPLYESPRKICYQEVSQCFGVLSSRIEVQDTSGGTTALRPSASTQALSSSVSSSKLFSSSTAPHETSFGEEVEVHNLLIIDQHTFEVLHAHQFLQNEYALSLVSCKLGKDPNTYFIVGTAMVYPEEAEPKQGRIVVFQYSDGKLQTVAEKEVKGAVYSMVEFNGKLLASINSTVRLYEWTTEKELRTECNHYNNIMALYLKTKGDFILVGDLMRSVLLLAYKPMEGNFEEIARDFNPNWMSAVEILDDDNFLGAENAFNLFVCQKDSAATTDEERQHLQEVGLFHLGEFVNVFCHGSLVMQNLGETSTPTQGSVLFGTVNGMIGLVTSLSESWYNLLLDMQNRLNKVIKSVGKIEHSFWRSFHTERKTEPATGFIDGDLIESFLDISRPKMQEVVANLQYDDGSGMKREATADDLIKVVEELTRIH", "test": "quantitative proteomics analysis in ABC1 cells", "assay_type": "cell-based", "settings": "100 nM, 6 hr", "protocol": "Quantitative Proteomics Analysis: ABC1 cells were treated with either DMSO (2 replicates) or compound 10 at 100 nM (2 replicates) for 6 hr. Proteins were extracted with the PreOmics iST-NHS lysis buffer (#P.O.00030). The samples were then processed using the PreOmics kit following their recommended protocol with minor modifications. In brief, the proteins were reduced, alkylated and digested for 2 h at 37° C. The peptides were then labelled with TMT reagent (1:4; peptide:TMT label) (Thermo Fisher Scientific). After quenching, the peptides were purified, and the 16 samples were combined to a 1:1 ratio. […] Eluted TMT peptides were analyzed on an Orbitrap Eclipse mass spectrometer (Thermo Fisher Scientific). […] Precursors were fragmented by CID at a normalized collision energy (NCE) of 35% and analyzed in the ion trap. Following MS2, synchronous precursor selection (SPS) MS3 scans were collected by using high energy collision-induced dissociation (HCD) and fragments were analyzed using the Orbitrap (NCE 55%, AGC target 1×10^5, maximum injection time 120 ms, resolution 60,000). Protein identification and quantification were performed using Proteome Discoverer 2.4.0.305 with the SEQUEST algorithm and Uniprot human database (2021 Jan. 29, 20614 protein sequences). […] Protein relative quantification was performed using an in-house developed java notebook. […]"}, "CK1alpha": {"biological_target": "CK1alpha (Homo sapiens (Human), UniProt P48729)", "sequence (P48729 whole entry, looked up)": "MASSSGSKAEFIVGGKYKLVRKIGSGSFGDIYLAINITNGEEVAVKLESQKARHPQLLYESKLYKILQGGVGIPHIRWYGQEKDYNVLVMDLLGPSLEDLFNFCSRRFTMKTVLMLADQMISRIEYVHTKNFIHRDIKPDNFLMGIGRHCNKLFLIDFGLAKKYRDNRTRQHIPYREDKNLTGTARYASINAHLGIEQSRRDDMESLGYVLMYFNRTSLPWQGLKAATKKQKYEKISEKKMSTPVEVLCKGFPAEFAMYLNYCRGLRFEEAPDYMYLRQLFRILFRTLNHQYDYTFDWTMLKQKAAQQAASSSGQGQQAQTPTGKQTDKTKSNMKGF", "test": "CK1alpha degradation in cells treated with compound (FIG. 1A)", "assay_type": "cell-based", "settings": "concentrations up to 30 µM"}}}
{"smiles": "Cc1ccc(NC(=O)OCc2ccc3c(c2)C(=O)N(C2CCC(=O)NC2=O)C3)cc1Cl", "note": "(centres unmarked) [Compound 10]", "values": [{"measurement": "protein downregulation by mass spectrometry-based proteomics (FIG. 1B)", "setting": "GSPT1", "value": "GSPT1 was the most statistically significant downregulated protein"}, {"measurement": "degradation of CK1alpha", "setting": "CK1alpha", "value": "no induction of degradation"}]}
